Experimental findings from US11066404B2, “Dihydropyrido[2,3-d]pyrimidinone compounds as CDK2 inhibitors” (Incyte Corporation, priority 2018, dated 2021) are described below.

Each structure is given as a SMILES string.

In general, IC50 refers to the concentration that inhibits the measured activity by half.

For this experiment, the target named is CDK2/Cyclin E1 (Homo sapiens (Human), UniProt P24941). Description: CDK2/Cyclin E1 HTRF Enzyme Activity Assay. The format is biochemical. Particulars: 1 mM ATP. The method, then: Example A. CDK2/Cyclin E1 HTRF Enzyme Activity Assay
CDK2/Cyclin E1 enzyme activity assays utilize full-length human CDK2 co-expressed as N-terminal GST-tagged protein with FLAG-Cyclin E1 in a baculovirus expression system (Carna Product Number 04-165). Assays are conducted in white 384-well polystyrene plates in a final reaction volume of 8 μL. CDK2/Cyclin E1 (0.25 nM) is incubated with compounds (40 nL serially diluted in DMSO) in the presence of ATP (50 μM or 1 mM) and 50 nM ULight™-labeled eIF4E-binding protein 1 (THR37/46) peptide (PerkinElmer) in assay buffer (containing 50 mM HEPES pH 7.5, 1 mM EGTA, 10 mM MgCl2, 2 mM DTT, 0.05 mg/ml BSA, and 0.01% Tween 20) for 60 minutes at room temperature. The reactions are stopped by the addition of EDTA and Europium-labeled anti-phospho-4E-BP 1 antibody (PerkinElmer), for a final concentration of 15 mM and 1.5 nM, respectively. HTRF signals are read after 1 hour at room temperature on a PHERAstar FS plate reader (BMG Labtech). Data is analyzed with IDBS XLFit and GraphPad Prism 5.0 software using a three or four parameter dose response curve to determine IC50 for each compound.
As to `CCC(C(F)F)N1C(=O)C(C)(C)Cc2cnc(NC3CCN(S(C)(=O)=O)CC3)nc21` (racemic) [Example 4, 8-(1,1-difluorobutan-2-yl)-6,6-dimethyl-2-((1-(methylsulfonyl)piperidin-4-yl)amino)-5,8-dihydropyrido[2,3-d]pyrimidin-7(6H)-one], the IC50 was 10 to 100 nM.

As to `CC1(C)Cc2cnc(NC3CCN(S(C)(=O)=O)CC3)nc2N(C2CCOC2)C1=O` (racemic) [Example 6, 6,6-dimethyl-2-((1-(methylsulfonyl)piperidin-4-yl)amino)-8-(tetrahydrofuran-3-yl)-5,8-dihydropyrido[2,3-d]pyrimidin-7(6H)-one], the IC50 lay in the range of 100 to 500 nM.

`CC1(C)Cc2cnc(Nc3ccc(S(N)(=O)=O)cc3)nc2N(C2CCCC2)C1=O` [Example 1, 4-((8-cyclopentyl-6,6-dimethyl-7-oxo-5,6,7,8-tetrahydropyrido[2,3-d]pyrimidin-2-yl)amino)benzenesulfonamide] came in with an IC50 of at most 10 nM.

`CC1(C)Cc2cnc(NC3CCN(S(C)(=O)=O)CC3)nc2N(C2CCCC2)C1=O` [Example 2, 8-cyclopentyl-6,6-dimethyl-2-((1-(methylsulfonyl)piperidin-4-yl)amino)-5,8-dihydropyrido[2,3-d]pyrimidin-7(6H)-one]: the IC50 is at most 10 nM.

Consider `CC1(C)Cc2cnc(NC3CCN(S(C)(=O)=O)CC3)nc2N(c2ccccc2)C1=O` [Example 3, 6,6-dimethyl-2-((1-(methylsulfonyl)piperidin-4-yl)amino)-8-phenyl-5,8-dihydropyrido[2,3-d]pyrimidin-7(6H)-one], for which the IC50 lay within 100 to 500 nM.

Compound `Cn1nccc1CN1C(=O)C(C)(C)Cc2cnc(NC3CCN(S(C)(=O)=O)CC3)nc21` [Example 5, 6,6-dimethyl-8-((1-methyl-1H-pyrazol-5-yl)methyl)-2-((1-(methylsulfonyl)piperidin-4-yl)amino)-5,8-dihydropyrido[2,3-d]pyrimidin-7(6H)-one] returned an IC50 of 100 to 500 nM.
